Reference: patent US20080269241A1, “BICYCLIC AMINOPROPYL TETRAHYDRO-PYRAZOLO-PYRIDINE MODULATORS OF CATHEPSIN S” (priority 2007, published 2008)

target: T1, human cathepsin S (CatS) (Homo sapiens, UniProt P25774); experiment: Recombinant human cathepsin S (CatS) fluorogenic substrate inhibition assay; format: biochemical; settings: recombinant human CatS, 10 μM Z-Valine-Valine-Arginine-AMC, pH 5.0; average of results obtained; read-out: CatS IC50
T1 construct: made in house; host or cells: baculovirus system (insect cells)
T1 sequence (P25774 115-331): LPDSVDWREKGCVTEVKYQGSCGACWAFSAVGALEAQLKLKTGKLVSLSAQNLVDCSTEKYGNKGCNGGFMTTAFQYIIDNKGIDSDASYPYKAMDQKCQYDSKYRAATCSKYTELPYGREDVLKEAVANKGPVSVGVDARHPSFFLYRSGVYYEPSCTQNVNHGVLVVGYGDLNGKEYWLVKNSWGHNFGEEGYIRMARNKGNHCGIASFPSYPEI
Protocol: Recombinant human cathepsin S (CatS) was expressed in the baculovirus system and purified in one step with a thiopropyl-sepharose column. […] The assay is run in 150 mM sodium acetate pH 5.0 containing 1.5 mM DTT and 150 mM NaCl. […] Measurements are taken every min for 20 min. The rate is calculated from the slope of the increase in fluorescence and the percent inhibition is calculated from this.

Row | SMILES | IC50 [nM]
1 | Cc1nnsc1C(=O)NCc1cc(-c2nn(CC(O)CN3CCC(N4CCCC4=O)CC3)c3c2CN(S(C)(=O)=O)CC3)ccc1C(F)(F)F (centres unmarked) [Example 51, 4-Methyl-[1,2,3]thiadiazole-5-carboxylic acid 5-(1-{2-hydroxy-3-[4-(2-oxo-pyrrolidin-1-yl)-piperidin-1-yl]-propyl}-5-methanesulfonyl-4,5,6,7-tetrahydro-1H-pyrazolo[4,3-c]pyridin-3-yl)-2-trifluoromethyl-benzylamide] | 200
2 | CS(=O)(=O)N1CCc2c(c(-c3ccc(C(F)(F)F)c(CNC(=O)c4ccco4)c3)nn2CC(O)CN2CCC(N3CCCC3=O)CC2)C1 (centres unmarked) [Example 52, Furan-2-carboxylic acid 5-(1-{2-hydroxy-3-[4-(2-oxo-pyrrolidin-1-yl)-piperidin-1-yl]-propyl}-5-methanesulfonyl-4,5,6,7-tetrahydro-1H-pyrazolo[4,3-c]pyridin-3-yl)-2-trifluoromethyl-benzylamide] | 190
3 | CS(=O)(=O)N1CCc2c(c(-c3ccc(C(F)(F)F)c(CNC(=O)/C=C/c4ccccc4)c3)nn2CC(O)CN2CCC(N3CCCC3=O)CC2)C1 (centres unmarked) [Example 55, N-[5-(1-{2-Hydroxy-3-[4-(2-oxo-pyrrolidin-1-yl)-piperidin-1-yl]-propyl}-5-methanesulfonyl-4,5,6,7-tetrahydro-1H-pyrazolo[4,3-c]pyridin-3-yl)-2-trifluoromethyl-benzyl]-3-phenyl-acrylamide] | 320
4 | CS(=O)(=O)N1CCc2c(c(-c3ccc(Cl)c(CNC(=O)c4ccc(F)cc4)c3)nn2CC(O)CN2CCC(N3CCCCC3=O)CC2)C1 (centres unmarked) [Example 72, N-(2-Chloro-5-{1-[2-hydroxy-3-(2-oxo-[1,4′]bipiperidinyl-1′-yl)-propyl]-5-methanesulfonyl-4,5,6,7-tetrahydro-1H-pyrazolo[4,3-c]pyridin-3-yl}-benzyl)-4-fluoro-benzamide] | 10
5 | CN(C)c1ccc2c(n1)n(C1CCN(CC(O)Cn3nc(-c4ccc(Cl)c(CNC(=O)c5ccc(F)cc5)c4)c4c3CCN(S(C)(=O)=O)C4)CC1)c(=O)n2C (centres unmarked) [Example 76, N-[2-Chloro-5-(1-{3-[4-(5-dimethylamino-1-methyl-2-oxo-1,2-dihydroimidazo[4,5-b]pyridin-3-yl)-piperidin-1-yl]-2-hydroxy-propyl}-5-methanesulfonyl-4,5,6,7-tetrahydro-1H-pyrazolo[4,3-c]pyridin-3-yl)-benzyl]-4-fluoro-benzamide] | 10
6 | CS(=O)(=O)N1CCc2c(c(-c3ccc(C(F)(F)F)c(CNC(=O)c4ccc(F)cc4O)c3)nn2CC(O)CN2CCC(N3CCCC3=O)CC2)C1 (centres unmarked) [Example 104, 4-Fluoro-2-hydroxy-N-[5-(1-{2-hydroxy-3-[4-(2-oxo-pyrrolidin-1-yl)-piperidin-1-yl]-propyl}-5-methanesulfonyl-4,5,6,7-tetrahydro-1H-pyrazolo[4,3-c]pyridin-3-yl)-2-trifluoromethyl-benzyl]-benzamide] | 60
7 | CS(=O)(=O)N1CCc2c(c(-c3ccc(C(F)(F)F)c(CNC(=O)N4CCCCC4)c3)nn2CC(O)CN2CCC(N3CCCC3=O)CC2)C1 (centres unmarked) [Example 112, Piperidine-1-carboxylic acid 5-(1-{2-hydroxy-3-[4-(2-oxo-pyrrolidin-1-yl)-piperidin-1-yl]-propyl}-5-methanesulfonyl-4,5,6,7-tetrahydro-1H-pyrazolo[4,3-c]pyridin-3-yl)-2-trifluoromethyl-benzylamide] | 100
8 | CS(=O)(=O)N1CCc2c(c(-c3ccc(C(F)(F)F)c(CNC(=O)c4cscn4)c3)nn2CC(O)CN2CCC(N3CCCC3=O)CC2)C1 (centres unmarked) [Example 114, Thiazole-4-carboxylic acid 5-(1-{2-hydroxy-3-[4-(2-oxo-pyrrolidin-1-yl)-piperidin-1-yl]-propyl}-5-methanesulfonyl-4,5,6,7-tetrahydro-1H-pyrazolo[4,3-c]pyridin-3-yl)-2-trifluoromethyl-benzylamide] | 100
9 | CS(=O)(=O)c1ccc(C(=O)NCc2cc(-c3nn(CC(O)CN4CCC(N5CCCC5=O)CC4)c4c3CN(S(C)(=O)=O)CC4)ccc2C(F)(F)F)s1 (centres unmarked) [Example 119, 5-Methanesulfonyl-thiophene-2-carboxylic acid 5-(1-{2-hydroxy-3-[4-(2-oxo-pyrrolidin-1-yl)-piperidin-1-yl]-propyl}-5-methanesulfonyl-4,5,6,7-tetrahydro-1H-pyrazolo[4,3-c]pyridin-3-yl)-2-trifluoromethyl-benzylamide] | 140
10 | CS(=O)(=O)N1CCc2c(c(-c3ccc(C(F)(F)F)c(CNC(=O)c4ccc5[nH]c(=O)[nH]c5c4)c3)nn2CC(O)CN2CCC(N3CCCC3=O)CC2)C1 (centres unmarked) [Example 120, 2-Oxo-2,3-dihydro-1H-benzoimidazole-5-carboxylic acid 5-(1-{2-hydroxy-3-[4-(2-oxo-pyrrolidin-1-yl)-piperidin-1-yl]-propyl}-5-methanesulfonyl-4,5,6,7-tetrahydro-1H-pyrazolo[4,3-c]pyridin-3-yl)-2-trifluoromethyl-benzylamide] | 140

Further molecules by falling IC50, results first:

Row | IC50 [nM] | SMILES
11 | 190 | CS(=O)(=O)N1CCc2c(c(-c3ccc(C(F)(F)F)c(CNC(=O)c4ccccn4)c3)nn2CC(O)CN2CCC(N3CCCC3=O)CC2)C1 (centres unmarked) [Example 53, Pyridine-2-carboxylic acid 5-(1-{2-hydroxy-3-[4-(2-oxo-pyrrolidin-1-yl)-piperidin-1-yl]-propyl}-5-methanesulfonyl-4,5,6,7-tetrahydro-1H-pyrazolo[4,3-c]pyridin-3-yl)-2-trifluoromethyl-benzylamide]
12 | 100 | CS(=O)(=O)N1CCc2c(c(-c3ccc(C(F)(F)F)c(CNC(=O)CC4CCCCC4)c3)nn2CCCN2CCC(N3CCCC3=O)CC2)C1 [Example 111, 2-Cyclohexyl-N-[5-(5-methanesulfonyl-1-{3-[4-(2-oxo-pyrrolidin-1-yl)-piperidin-1-yl]-propyl}-4,5,6,7-tetrahydro-1H-pyrazolo[4,3-c]pyridin-3-yl)-2-trifluoromethyl-benzyl]-acetamide]
13 | 90 | CCCC(=O)NCc1cc(-c2nn(CCCN3CCC(N4CCCC4=O)CC3)c3c2CN(S(C)(=O)=O)CC3)ccc1C(F)(F)F [Example 110, N-[5-(5-Methanesulfonyl-1-{3-[4-(2-oxo-pyrrolidin-1-yl)-piperidin-1-yl]-propyl}-4,5,6,7-tetrahydro-1H-pyrazolo[4,3-c]pyridin-3-yl)-2-trifluoromethyl-benzyl]-butyramide]
14 | 80 | CS(=O)(=O)N1CCc2c(c(-c3ccc(C(F)(F)F)c(CNC(=O)CC4CCCC4)c3)nn2CCCN2CCC(N3CCCC3=O)CC2)C1 [Example 108, 2-Cyclopentyl-N-[5-(5-methanesulfonyl-1-{3-[4-(2-oxo-pyrrolidin-1-yl)-piperidin-1-yl]-propyl}-4,5,6,7-tetrahydro-1H-pyrazolo[4,3-c]pyridin-3-yl)-2-trifluoromethyl-benzyl]-acetamide]
15 | 80 | CC(=O)c1ccc(C(=O)NCc2cc(-c3nn(CC(O)CN4CCC(N5CCCC5=O)CC4)c4c3CN(S(C)(=O)=O)CC4)ccc2C(F)(F)F)s1 (centres unmarked) [Example 109, 5-Acetyl-thiophene-2-carboxylic acid 5-(1-{2-hydroxy-3-[4-(2-oxo-pyrrolidin-1-yl)-piperidin-1-yl]-propyl}-5-methanesulfonyl-4,5,6,7-tetrahydro-1H-pyrazolo[4,3-c]pyridin-3-yl)-2-trifluoromethyl-benzylamide]
16 | 70 | CS(=O)(=O)N1CCc2c(c(-c3ccc(C(F)(F)F)c(CNC(=O)c4ccc(C(F)(F)F)nc4)c3)nn2CC(O)CN2CCC(N3CCCC3=O)CC2)C1 (centres unmarked) [Example 54, N-[5-(1-{2-Hydroxy-3-[4-(2-oxo-pyrrolidin-1-yl)-piperidin-1-yl]-propyl}-5-methanesulfonyl-4,5,6,7-tetrahydro-1H-pyrazolo[4,3-c]pyridin-3-yl)-2-trifluoromethyl-benzyl]-6-trifluoromethyl-nicotinamide]
17 | 70 | CS(=O)(=O)N1CCc2c(c(-c3ccc(C(F)(F)F)c(CNC(=O)c4ccc(CO)cc4)c3)nn2CC(O)CN2CCC(N3CCCC3=O)CC2)C1 (centres unmarked) [Example 107, 4-Hydroxymethyl-N-[5-(1-{2-hydroxy-3-[4-(2-oxo-pyrrolidin-1-yl)-piperidin-1-yl]-propyl}-5-methanesulfonyl-4,5,6,7-tetrahydro-1H-pyrazolo[4,3-c]pyridin-3-yl)-2-trifluoromethyl-benzyl]-benzamide]
18 | 60 | CS(=O)(=O)N1CCc2c(c(-c3ccc(Cl)c(CNC(=O)c4ccc(F)cc4)c3)nn2CC(O)CN2CCC(N3CCOCC3)CC2)C1 (centres unmarked) [Example 79, N-(2-Chloro-5-{1-[2-hydroxy-3-(4-morpholin-4-yl-piperidin-1-yl)-propyl]-5-methanesulfonyl-4,5,6,7-tetrahydro-1H-pyrazolo[4,3-c]pyridin-3-yl}-benzyl)-4-fluoro-benzamide]
19 | 60 | CS(=O)(=O)N1CCc2c(c(-c3ccc(C(F)(F)F)c(CNC(=O)c4cc5ccccc5s4)c3)nn2CC(O)CN2CCC(N3CCCC3=O)CC2)C1 (centres unmarked) [Example 106, Benzo[b]thiophene-2-carboxylic acid 5-(1-{2-hydroxy-3-[4-(2-oxo-pyrrolidin-1-yl)-piperidin-1-yl]-propyl}-5-methanesulfonyl-4,5,6,7-tetrahydro-1H-pyrazolo[4,3-c]pyridin-3-yl)-2-trifluoromethyl-benzylamide]
20 | 40 | CS(=O)(=O)N1CCc2c(c(-c3ccc(C(F)(F)F)c(CNC(=O)c4cccs4)c3)nn2CC(O)CN2CCC(N3CCCC3=O)CC2)C1 (centres unmarked) [Example 105, Thiophene-2-carboxylic acid 5-(1-{2-hydroxy-3-[4-(2-oxo-pyrrolidin-1-yl)-piperidin-1-yl]-propyl}-5-methanesulfonyl-4,5,6,7-tetrahydro-1H-pyrazolo[4,3-c]pyridin-3-yl)-2-trifluoromethyl-benzylamide]
